Results on 12 molecules are retold here after patent US11236055B2 (Venenum Biodesign, LLC, priority 2016, dated 2022).

In one assay the target is T1, human TGR5 receptor (Homo sapiens, UniProt Q8TDU6).
T1 construct: host or cells: CHO-K1 (hTGR5-CHO cells)
T1 sequence (Q8TDU6 1-330): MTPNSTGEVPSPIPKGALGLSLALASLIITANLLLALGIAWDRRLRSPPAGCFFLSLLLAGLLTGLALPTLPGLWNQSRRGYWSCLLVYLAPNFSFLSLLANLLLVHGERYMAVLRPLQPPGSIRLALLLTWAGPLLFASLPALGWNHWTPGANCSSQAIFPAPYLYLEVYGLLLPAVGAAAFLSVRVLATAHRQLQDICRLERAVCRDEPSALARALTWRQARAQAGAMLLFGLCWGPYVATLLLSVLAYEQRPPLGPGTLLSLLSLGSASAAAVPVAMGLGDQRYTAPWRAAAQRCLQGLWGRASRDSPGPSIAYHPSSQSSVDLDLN
The assay is described as follows: Human TGR5 cAMP production assay. Format: cell-based. To be noted: human TGR5, luminescent cAMP assay; coded A-D; read-out: Human TGR5 Lum. cAMP Activity (EC50). In short, it runs like this: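 Intracellular cAMP read by luminescent enzyme-complementation (XS+) after overnight development, following 1 h room-temperature compound treatment of hTGR5-CHO-K1 cells in IBMX plus anti-cAMP antibody. Compounds tested as half-log dilution series; EC50 derived.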
Background: Cyclic AMP is a second messenger, typically raised through Gs and lowered through Gi signalling.

In the next assay the target is T2, mouse TGR5 receptor (Mus musculus, UniProt Q80SS6).
T2 construct: expressed in transfected cells; host or cells: HEK293-EBNA (293 c18, ATCC CRL10852), Hygromycin B selection
T2 sequence (Q80SS6 1-329): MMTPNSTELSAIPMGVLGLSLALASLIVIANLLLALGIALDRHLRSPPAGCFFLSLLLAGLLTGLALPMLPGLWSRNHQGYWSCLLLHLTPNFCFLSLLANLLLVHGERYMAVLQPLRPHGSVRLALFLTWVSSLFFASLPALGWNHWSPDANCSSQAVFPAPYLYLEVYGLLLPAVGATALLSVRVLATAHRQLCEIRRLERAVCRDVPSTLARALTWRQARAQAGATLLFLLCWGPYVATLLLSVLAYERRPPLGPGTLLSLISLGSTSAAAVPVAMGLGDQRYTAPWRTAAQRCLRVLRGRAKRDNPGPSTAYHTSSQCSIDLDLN
The assay can be described thus: Mouse TGR5 cAMP production assay (HTRF, Cisbio cAMP HiRange). The conditions noted are these: HEK293-EBNA cells overexpressing mouse TGR5, HTRF cAMP HiRange; coded A-D. In kind it is cell-based. An outline of the steps:
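cAMP read by HTRF competition after 1 h room-temperature compound exposure of mouse TGR5-overexpressing HEK293-EBNA cells. Cells were suspended in serum-free DMEM containing 500 μM IBMX; compounds ran as 12-point half-log dilutions in duplicate; EC50 derived.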

`CC(C)(NS(=O)(=O)c1ccccc1C(F)(F)F)c1cccc(-c2ccc(=O)[nH]c2)c1` [Compound 3, N-(2-(3-(6-oxo-1,6-dihydropyridin-3-yl)phenyl)propan-2-yl)-2-(trifluoromethyl)benzenesulfonamide]: the figures for the EC50 on human TGR5 receptor and at mouse TGR5 receptor were 100 to 999 nM and 1000 to 30000 nM, respectively.

Turning to `CCc1cnccc1-c1cccc([C@H](C)N(CCCCNC(=O)[C@@H](N)CS(=O)(=O)O)S(=O)(=O)c2cccc(Cl)c2C)c1` [Compound 31AD, (R)-2-amino-3-((4-(3-chloro-N-((S)-1-(3-(3-ethylpyridin-4-yl)phenyl)ethyl)-2-methylphenylsulfonamido)butyl)amino)-3-oxopropane-1-sulfonic acid], the EC50 on human TGR5 receptor and on mouse TGR5 receptor was below 100 nM in each case.

For `CCc1cnccc1-c1cc(OC)cc(C(C)(C)NS(=O)(=O)c2ccccc2C(F)(F)F)c1` [Compound 2CD], the EC50 on human TGR5 receptor and at mouse TGR5 receptor was 100 to 999 nM in each case.

On to `Cc1cnccc1-c1cccc([C@H](C)N(CCCC(=O)NCCCS(=O)(=O)O)S(=O)(=O)c2cccc(Cl)c2C)c1` [Compound 20AL, (S)-3-(4-(3-chloro-2-methyl-N-(1-(3-(3-methylpyridin-4-yl)phenyl)ethyl)phenylsulfonamido)butanamido)propane-1-sulfonic acid], for which the EC50 on human TGR5 receptor and on mouse TGR5 receptor was below 100 nM in each case.

Take `Cc1cncnc1-c1cccc(C(C)(C)NS(=O)(=O)c2ccccc2C(F)(F)F)c1` [Compound 6AA, N-(2-(3-(5-methylpyrimidin-4-yl)phenyl)propan-2-yl)-2-(trifluoromethyl)benzenesulfonamide]: the 50% effective concentration (EC50) on human TGR5 receptor and at mouse TGR5 receptor was 1000 to 30000 nM each time.

`Cc1cnccc1-c1cccc([C@H](C)N(CCCCO)S(=O)(=O)c2cccc(Cl)c2C)c1` [Compound 39, (S)-3-chloro-N-(4-hydroxybutyl)-2-methyl-N-(1-(3-(3-methylpyridin-4-yl)phenyl)ethyl)Benzenesulfonamide]: the EC50 on human TGR5 receptor and on mouse TGR5 receptor was below 100 nM in each case.

Regarding `CCc1cnccc1-c1cccc([C@H](C)N(CCCC(=O)O)S(=O)(=O)c2ccccc2C(F)(F)F)c1` [Compound 15AB, (S)-4-(N-(1-(3-(3-ethylpyridin-4-yl)phenyl)ethyl)-2-(trifluoromethyl)phenylsulfonamido)butanoic acid], the EC50 on human TGR5 receptor and on mouse TGR5 receptor was below 100 nM in each case.

As to `CCc1cnccc1-c1cccc([C@@H](C)NS(=O)(=O)c2ccccc2C(F)(F)F)c1` [Compound 5AS, (R)-N-(1-(3-(3-ethylpyridin-4-yl)phenyl)ethyl)-2-(trifluoromethyl)benzenesulfonamide], the EC50 at human TGR5 receptor was below 100 nM; at mouse TGR5 receptor, 100 to 999 nM.

With `Cc1cnccc1-c1cccc([C@H](C)N(CCCC(N)=O)S(=O)(=O)c2cccc(Cl)c2C)c1` [Compound 20AY, (S)-4-(3-Chloro-2-methyl-N-(1-(3-(3-methylpyridin-4-yl)phenyl)ethyl)phenylsulfonamido)butanamide], the half-maximal effective concentration (EC50) at human TGR5 receptor was below 100 nM; at mouse TGR5 receptor it was 100 to 999 nM.

`CCc1cnccc1-c1cccc([C@H](C)N(CCCCN)S(=O)(=O)c2cccc(Cl)c2C)c1` [Compound 24AC, (S)-N-(4-aminobutyl)-3-chloro-N-(1-(3-(3-ethylpyridin-4-yl)phenyl)ethyl)-2-methylbenzenesulfonamide]: the figures for the EC50 at human TGR5 receptor and on mouse TGR5 receptor were 100 to 999 nM and below 100 nM, respectively.

Consider `Cc1cnccc1-c1cccc(C2CN(CCCC(=O)NCCS(=O)(=O)O)CCN2S(=O)(=O)c2cccc(Cl)c2C)c1` (stereo not drawn) [Compound 53AA, 2-(4-(4-((3-chloro-2-methylphenyl)sulfonyl)-3-(3-(3-methylpyridin-4-yl)phenyl)piperazin-1-yl)butanamido)ethanesulfonic acid], for which the results for the EC50 on human TGR5 receptor and on mouse TGR5 receptor were 100 to 999 nM and below 100 nM, respectively.

Turning to `CCc1cnccc1-c1cccc([C@H](C)NS(=O)(=O)c2ccccc2C(F)(F)F)c1` [Compound 5AQ, (S)-N-(1-(3-(3-ethylpyridin-4-yl)phenyl)ethyl)-2-(trifluoromethyl)benzenesulfonamide], the EC50 on human TGR5 receptor and on mouse TGR5 receptor was below 100 nM throughout.

One may read the EC50 as the concentration that produces a half-maximal response.
